# Data reported in paper PMC6956098 (2019).
# Assays:
# [1] = tested on: VDBA14 aptamer, 5'-Cy5-labeled (DNA, aptamer) AGCAGCACAGAGGTCATGGGGGGTGTGACTTTGGTGTGCCTATGCGTGCTACGGAA; assay: microscale thermophoresis; conditions: 100 mM NaCl, 5 mM KCl, 2 mM MgCl2, 1 mM CaCl2, 20 mM Tris-HCl pH 7.6, 10% ethanol, 35 °C
# [2] = tested on: VDBA14 aptamer, immobilized on microarray (DNA, aptamer) AGCAGCACAGAGGTCATGGGGGGTGTGACTTTGGTGTGCCTATGCGTGCTACGGAA; assay: microarray fluorescence, displacement of Cy5-oligonucleotide; conditions: 100 mM NaCl, 5 mM KCl, 2 mM MgCl2, 1 mM CaCl2; 20 mM Tris-HCl pH 7.6; tracer displaced: 50 nM 5'-Cy5-AAAGTCACAC (O3); 78% maximal reduction at 2 μM
# [3] = tested on: VDBA14 aptamer, 5'-NH2-modified (in solution) (DNA, aptamer) AGCAGCACAGAGGTCATGGGGGGTGTGACTTTGGTGTGCCTATGCGTGCTACGGAA; assay: microscale thermophoresis, displacement of Cy5-oligonucleotide; conditions: 100 mM NaCl, 5 mM KCl, 2 mM MgCl2, 1 mM CaCl2, pH 7.6, 35 °C, tracer displaced: 10 nM 5'-Cy5-AAAGTCACAC (O3), 10 nM aptamer
SMILES,Kd ([1]; no binding observed at room temperature),binding [2],apparent Kd [3],binding ([1]; highest concentration 10 μM)
C=C1CC[C@H](O)C/C1=C/C=C1\CCC[C@]2(C)[C@@H]([C@H](C)CCCC(C)(C)O)CC[C@@H]12,14.99 nM,yes,1 ± 0.18 nM,
C=C1CC[C@H](O)C/C1=C/C=C1\CCC[C@]2(C)[C@@H]([C@H](C)CCCC(C)C)CC[C@@H]12,,,,no
